Test system: Wistar rats
Test: Choleretic activity in the rat, bile fistula method
Assay type: in vivo
Conditions: for R.S. (dry residue): pooled bile; for ml of bile flow ± s.e.: second series
Text: It is known that the primary effect of a choleretic agent is to increase the bile flow and the quantity of solid substances excreted with the bile. A good choleretic must provide this effect in a sufficiently intense and prolonged manner. In addition, as in the case of all drugs, it must have low acute toxicity and good general tolerability, but in particular must be free from toxic effects on the organ on which it is required to act, i.e. the liver, whether this is in a normal or pathological state. The analysis of the new product in comparison with the best known products for the same therapeutic use has therefore been focused on these aspects. The choleretic activity of the new product has been determined in the rat by using the bile fistula method. Wistar rats of both sexes and having a weight of between 180 and 240 g were used.
The animals, which were kept fasting for 12 hours but with free access to water, were narcotised by ethyl urethane in a dose of 1 g/kg by intra peritoneal or intramuscular injection.
After binding the animals to the retention bed, a median laparatomy was carried out, and when the bile duct had been isolated a cannula needle was inserted into it. A polythene tube was then inserted into those ani mals which were to receive the products intraduodenally, after which a su ture was carried out on the abdominal wall, and the bile was allowed to discharge for 30 minutes after inserting the cannula in the bile duct, so as to allow the discharge to become normal. The bile was then collec ted for one hour.
Having determined the volume of bile discharged during this first hour of collection (base volume), the products under examination were administered at the predetermined doses and by the predetermined methods. The bile excreted by the individual animals was then collected over each hour for a further six hours.
During the experiments, the animals were kept at ambient temperature of about 22°C, and at regular intervals of two hours received 10 ml/kg of physiological solution s.c.
The liquids were administered at a temperature of 37°C.
The bile flow and cholesterol excretion were determined on those bile fractions excreted by the animals over each hour starting from the base hour until the end of the experiment
The dry residue (R.So) was determined on the bile fraction excreted during the base hour and on the total bile fractions excreted during the sub sequent hours. For practical reasons, the determination of the dry residue and of the cholesterol (carried out by the Sperry & Webb method) were carried out on the pool of bile excreted by the entire group of animals subjected to the same treatment instead of on the bile fractions excreted by the individual animals (which was sometimes insufficient for determining the cholesterol).
In compiling the graphs, the differences between the choleresis in the treated animals and that in the controls was calculated over the considered time intervals, and expressed as a percentage of the base choleresis. For this calculation, the following formula was used: [formula] where Cn and C' represent the choleresis (in ml/kg/h for the bile flow, and in mg/kg/h for the dry residue) determined over the considered time interval for the group of treated animals and the group of controls respectively. Cb and C'b represent the base choleresis in the group of treated animals and group of controls respectively.
This index was calculated as the time for halving the maximum choleresis increase recorded under their effect.

C[C@H](CCC(=O)O)[C@H]1CC[C@H]2[C@@H]3C(=O)C[C@@H]4CC(=O)CC[C@]4(C)[C@H]3CC(=O)[C@]12C [Dehydrocholic acid, dehydrocholic acid]
Flow (25 mg/kg p.o., 0 (base hour)): 2,46±0,05 ml/kg/h | R.S. (dry residue) (25 mg/kg p.o., 0 (base hour)): 59,8 mg/kg/h | Flow (25 mg/kg p.o., 1h): 3,33±0,14 ml/kg/h | R.S. (dry residue) (25 mg/kg p.o., 1h): 84,1 mg/kg/h | Flow (25 mg/kg p.o., 2h): 1,88±0,14 ml/kg/h | Flow (25 mg/kg p.o., 3h): 2,19±0,15 ml/kg/h | Flow (25 mg/kg p.o., 4h): 1,92±0,17 ml/kg/h | Flow (25 mg/kg p.o., 5h): 1,77±0,16 ml/kg/h | Flow (25 mg/kg p.o., 6h): 1,29±0,15 ml/kg/h | R.S. (dry residue) (25 mg/kg p.o., subsequent hours 2h-6h): 41,0 mg/kg/h | Flow (50 mg/kg i.d., 0 (base hour)): 2,31±0,15 ml/kg/h | R.S. (dry residue) (50 mg/kg i.d., 0 (base hour)): 61,9 mg/kg/h | Flow (50 mg/kg i.d., 1 h): 3,82±0,26 ml/kg/h | R.S. (dry residue) (50 mg/kg i.d., 1 h): 98,5 mg/kg/h | Flow (50 mg/kg i.d., 2 h): 2,51±0,17 ml/kg/h | Flow (50 mg/kg i.d., 3 h): 2,63±0,19 ml/kg/h | Flow (50 mg/kg i.d., 4 h): 1,93±0,12 ml/kg/h | Flow (50 mg/kg i.d., 5 h): 1,87±0,13 ml/kg/h | Flow (50 mg/kg i.d., 6 h): 1,45±0,14 ml/kg/h | R.S. (dry residue) (50 mg/kg i.d., subsequent hours 2h-6h (printed under 4 h)): 44,5 mg/kg/h | Flow (100 mg/kg i.d., 0 (base hour)): 1,80±0,09 ml/kg/h | R.S. (dry residue) (100 mg/kg i.d., 0 (base hour)): 52,3 mg/kg/h | Flow (100 mg/kg i.d., 1 h): 4,59±0,24 ml/kg/h | R.S. (dry residue) (100 mg/kg i.d., 1 h): 147,0 mg/kg/h | Flow (100 mg/kg i.d., 2 h): 2,45±0,10 ml/kg/h | Flow (100 mg/kg i.d., 3 h): 1,98±0,09 ml/kg/h | Flow (100 mg/kg i.d., 4 h): 1,82±0,09 ml/kg/h | Flow (100 mg/kg i.d., 5 h): 1,82+0,08 ml/kg/h | Flow (100 mg/kg i.d., 6 h): 1,55±0,08 ml/kg/h | R.S. (dry residue) (100 mg/kg i.d., subsequent hours 2h-6h (printed under 4 h)): 49,9 mg/kg/h | Flow (100 mg/kg p.o., 0 (base hour)): 2,23±0,22 ml/kg/h | R.S. (dry residue) (100 mg/kg p.o., 0 (base hour)): 55,4 mg/kg/h | Flow (100 mg/kg p.o., 1h): 3,75±0,75 ml/kg/h | R.S. (dry residue) (100 mg/kg p.o., 1h): 98,6 mg/kg/h | Flow (100 mg/kg p.o., 2h): 2,60±0,24 ml/kg/h | Flow (100 mg/kg p.o., 3h): 2,15±0,28 ml/kg/h | Flow (100 mg/kg p.o., 4h): 2,10±0,24 ml/kg/h | Flow (100 mg/kg p.o., 5h): 1,64±0,20 ml/kg/h | Flow (100 mg/kg p.o., 6h): 1,64±0,24 ml/kg/h | R.S. (dry residue) (100 mg/kg p.o., subsequent hours 2h-6h): 45,5 mg/kg/h | Flow (200 mg/kg i.d., 0 (base hour)): 2,28±0,09 ml/kg/h | R.S. (dry residue) (200 mg/kg i.d., 0 (base hour)): 71,0 mg/kg/h | Flow (200 mg/kg i.d., 1 h): 8,10±0,38 ml/kg/h | R.S. (dry residue) (200 mg/kg i.d., 1 h): 255,0 mg/kg/h | Flow (200 mg/kg i.d., 2 h): 3,76±0,10 ml/kg/h | Flow (200 mg/kg i.d., 3 h): 2,69±0,07 ml/kg/h | Flow (200 mg/kg i.d., 4 h): 2,77±0,13 ml/kg/h | Flow (200 mg/kg i.d., 5 h): 2,34±0,11 ml/kg/h | Flow (200 mg/kg i.d., 6 h): 2,16±0,08 ml/kg/h | R.S. (dry residue) (200 mg/kg i.d., subsequent hours 2h-6h (printed under 4 h)): 67,0 mg/kg/h | Peak choleresis time of appearance (200 mg/kg p.o. (dose given for 1620 only)): 1st hour | Peak choleresis % increase (200 mg/kg p.o. (dose given for 1620 only), increase over controls as percentage of base choleresis): 94% | Duration index (200 mg/kg p.o. (dose given for 1620 only), time for halving the maximum choleresis increase): 45' | Flow (200 mg/kg p.o., 0 (base hour)): 2,75±0,17 ml/kg/h | R.S. (dry residue) (200 mg/kg p.o., 0 (base hour)): 85,8 mg/kg/h | Flow (200 mg/kg p.o., 1h): 5,39±0,24 ml/kg/h | R.S. (dry residue) (200 mg/kg p.o., 1h): 171,9 mg/kg/h | Flow (200 mg/kg p.o., 2h): 3,50±0,13 ml/kg/h | Flow (200 mg/kg p.o., 3h): 2,64±0,19 ml/kg/h | Flow (200 mg/kg p.o., 4h): 2,78±0,18 ml/kg/h | Flow (200 mg/kg p.o., 5h): 2,61±0,13 ml/kg/h | Flow (200 mg/kg p.o., 6h): 2,38±0,14 ml/kg/h | R.S. (dry residue) (200 mg/kg p.o., subsequent hours 2h-6h): 74,9 mg/kg/h | Flow (400 mg/kg p.o., 0 (base hour)): 2,53±0,10 ml/kg/h | R.S. (dry residue) (400 mg/kg p.o., 0 (base hour)): 71,8 mg/kg/h | Flow (400 mg/kg p.o., 1h): 7,68±0,20 ml/kg/h | R.S. (dry residue) (400 mg/kg p.o., 1h): 238,6 mg/kg/h | Flow (400 mg/kg p.o., 2h): 4,70±0,45 ml/kg/h | Flow (400 mg/kg p.o., 3h): 3,06±0,15 ml/kg/h | Flow (400 mg/kg p.o., 4h): 2,59±0,16 ml/kg/h | Flow (400 mg/kg p.o., 5h): 2,29±0,12 ml/kg/h | Flow (400 mg/kg p.o., 6h): 1,97±0,15 ml/kg/h | R.S. (dry residue) (400 mg/kg p.o., subsequent hours 2h-6h): 77,8 mg/kg/h | ml of bile flow ± s.e. (oral by gastric probe 25 mg/kg, 0 (base values)): 2,4±0,21 ml | ml of bile flow ± s.e. (oral by gastric probe 25 mg/kg, 1 h): 3,0±0,25 ml | ml of bile flow ± s.e. (oral by gastric probe 25 mg/kg, 2 h): 2,0±0,12 ml | ml of bile flow ± s.e. (oral by gastric probe 25 mg/kg, 3 h): 1,9±0,11 ml | ml of bile flow ± s.e. (oral by gastric probe 25 mg/kg, 4 h): 1,7±0,13 ml | ml of bile flow ± s.e. (oral by gastric probe 25 mg/kg, 5 h): 1,7±0,10 ml | ml of bile flow ± s.e. (oral by gastric probe 25 mg/kg, 6 h): 1,4±0,11 ml | ml of bile flow ± s.e. (oral by gastric probe 50 mg/kg, 0 (base values)): 2,5±0,16 ml | ml of bile flow ± s.e. (oral by gastric probe 50 mg/kg, 1 h): 3,9±0,18 ml | ml of bile flow ± s.e. (oral by gastric probe 50 mg/kg, 2 h): 2,1±0,16 ml | ml of bile flow ± s.e. (oral by gastric probe 50 mg/kg, 3 h): 1,9±0,14 ml | ml of bile flow ± s.e. (oral by gastric probe 50 mg/kg, 4 h): 1,8±0,17 ml | ml of bile flow ± s.e. (oral by gastric probe 50 mg/kg, 5 h): 1,7±0,11 ml | ml of bile flow ± s.e. (oral by gastric probe 50 mg/kg, 6 h): 1,5±0,13 ml

— EP0012729A1, “Therapeutic compositions containing as active compound a substituted acetic acid or its salt” ("IBIS" ISTITUTO BIOCHIMICO SPERIMENTALE S.p.A., priority 1978, dated 1980)
